Values of other authors, collected in patent publication US4448730A, “Hydroxybenzohydroxamic acids, benzamides and esters and related compounds as ribonucleotide reductase inhibitors” (priority 1982, dated 1984).

Tests used:
[1] = test system: DNA synthesis in Ehrlich ascites tumor cells; settings: Gale and Hynes 1968; in vitro; cited from earlier work
[2] = test system: RNA and protein synthesis in Ehrlich ascites tumor cells; settings: Gale and Hynes 1968; cited from earlier work
L1210 leukemia = settings: National Cancer Institute; cited from earlier work
[3] = Biochemical Pharmacology 1971; cited from earlier work
[4] = test system: DNA, RNA and protein synthesis in cells; settings: cited from earlier work

| Compound | inhibition of / selectivity against DNA synthesis (in words) [1] | depression of RNA and protein synthesis [2] [%] | antitumor activity in vivo against L1210 leukemia (in words) (L1210 leukemia) | antimitogenic activity (in words) [3] | inhibition of DNA synthesis (in words) ([4]; Gale 1966) | depression of RNA and protein synthesis (in words) ([4]; cells preincubated for up to two hours) |
| --- | --- | --- | --- | --- | --- | --- |
| Nc1cccc(C(=O)NO)c1 [3-Aminobenzohydroxamic acid] | completely inhibiting DNA synthesis | 50 |  |  |  |  |
| O=C(NO)c1ccc(O)cc1 [4-hydroxybenzoylhydroxamic acid] |  |  | significant antitumor activity in vivo | most active compounds tested |  |  |
| O=C(NO)c1ccccc1O [salicylhydroxamic acid] | selective inhibition of DNA synthesis |  |  |  | selective inhibition of DNA synthesis | only a slight depression of RNA and protein synthesis |
